Holding throughout (format): cell-based
One data set has as its system HIV. Kind of data set: HOS HIV infectivity assay (Table 2, strain not given). Particulars: Human immunodeficiency virus 1, read-out: Activity Level. Summed up: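 HOS cells expressing hCXCR4/hCCR5/hCD4 and an HIV-LTR-luciferase reporter were preincubated with compound for 1 h in DMEM/2% FCS. They were then infected with HIV-1 Ba-L or IIIB (about 2 million RLU/well) for 96 h at 37° C. Infection was read by luciferase luminescence, and viability in uninfected cultures by CellTiter-Glo.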

Data set [1] is described as follows: Compound cytotoxicity in the absence of virus (CellTiter-Glo). The settings on record: human; HOS cells, no virus; read-out: Cytotox (pIC50) (converted). The method, then:
(§1) Compounds were profiled against two HIV-1 viruses, the M-tropic (CCR5 utilizing) Ba-L strain and the T-tropic (CXCR4 utilizing) IIIB strain. Both viruses were propagated in human peripheral blood lymphocytes. Compounds were tested for there ability to block infection of the HOS cell line (expressing hCXCR4/hCCR5/hCD4/pHIV-LTR-luciferase) by either HIV-1 Ba-L or HIV-1 IIIB. Compound cytotoxicity was also examined in the absence of virus addition.
(§2) HOS cells (expressing hCXCR4/hCCR5/hCD4/pHIV-LTR-luciferase) were harvested and diluted in Dulbeccos modified Eagles media supplemented with 2% FCS and non-essential amino acid to a concentration of 60,000 cells/ml. The cells were plated into 96-well plates (100 ul per well) and the plates were placed in a tissue culture incubator (37° C.; 5% CO2/95% air) for a period of 24 h.
(§3) Subsequently, 50 ul of the desired drug solution (4 times the final concentration) was added to each well and the plates were returned to the tissue culture incubator (37° C.; 5% CO2/95% air) for 1 h. Following this incubation 50 ul of diluted virus was added to each well (approximately 2 million RLU per well of virus). The plates were returned to the tissue culture incubator (37° C.; 5% CO2/95% air) and were incubated for a further 96 h.
(§4) Following this incubation the endpoint for the virally infected cultures was quantified following addition of Steady-Glo Luciferase assay system reagent (Promega, Madison, Wis.). Cell viability or non-infected cultures was measured using a CellTiter-Glo luminescent cell viability assay system (Promega, Madison, Wis.). All luminescent readouts are performed on a Topcount luminescence detector (Packard, Meridien, Conn.).
A general note: Cellular ATP, detected with luciferase, serves as a proxy for viable cell number.

A further data set concerns the target T1, human CXCR4 (Homo sapiens, UniProt P61073).
T1 construct: expressed in transfected cells; host or cells: HEK-293 cells (stably expressing human macrophage scavenger receptor class A type 1), transduced with human CXCR4 BacMam and Gqi5 BacMam baculoviruses
Kind of data set: Functional FLIPR assay (block of SDF-1 alpha induced [Ca2+]i change). The settings on record: HEK-293 cells with human CXCR4 and Gqi5 BacMam; antagonism of SDF-1 alpha; read-out: Functional assay (pIC50) (converted). The method, then: Human embryonic kidney (HEK-293) cells were maintained and harvested as described above. Cells were plated in 96-well, black clear bottom, poly-lysine coated plates at a concentration of 40,000 cells per well in a final volume of 100 ul containing human CXCR4 BacMam (MOI=25) and Gqi5 BacMam (MOI=12.5). The cells were incubated at 37° C., 5% CO2, 95% humidity for 24 h to allow for protein expression.
After the required incubation time the cells were washed once with 50 ul of fresh serum-free DMEM/F12 media containing probenicid. 50 ul of dye solution was then added to the cells (Calcium Plus Assay Kit Dye; Molecular Devices) was dissolved in 200 ml of the above probenicid/BSA containing media and incubated for 1 h. Cell plates were transferred to a Fluorometric Imaging Plate Reader (FLIPR). Upon addition the effect of the compounds on the change in [Ca^2+]i was examined to determine if the compounds were agonists or antagonists (ability to block SDF-1 alpha activity) at the CXCR4 receptor. IC50 values are determined and pKb values are calculated using the Leff and Dougall equation: KB=IC50/((2+([agonist]/EC50ˆb)ˆ1/b−1) Where IC50 is that defined by the antagonist concentration-response curve [agonist] is the EC80 concentration of agonist used EC50 is that defined by the agonist concentration-response curve b is the slope of the agonist concentration-response curve.

For the next data set, the system named is HIV-1 IIIB. The experiment in a line: HOS HIV-1 infectivity assay, IIIB strain. Particulars: Human immunodeficiency virus 1; HOS cells, HIV-1 IIIB (T-tropic, CXCR4 utilizing), 96 h; read-out: HOS (3B). The method, then: HOS HIV-1 Infectivity Assay
as §1
HOS HIV-1 Infectivity Assay Format
as §2, §3, §4

Data set [2] concerns HOS (hCXCR4/hCCR5/hCD4/pHIV-LTR-luciferase) cells and HEK-293 cells expressing HIV-1 gp160 (HXB2 strain). The experiment in a line: Cell/cell fusion assay (luciferase). The settings on record: Homo sapiens, HEK293; 24 h, luciferase readout; read-out: Fusion assay (pIC50) (converted). An excerpt: The complete coding sequences of HIV-1 tat (GenBank Accession No. X07861) and rev (GenBank Accession No. M34378) were cloned into pcDNA3.1 expression vectors containing G418 and hygromycin resistance genes, respectively. The complete coding sequence of the HIV-1 (HXB2 strain) gp160 envelope gene (nucleotide bases 6225-8795 of GenBank Accession No. K03455) was cloned into plasmid pCRII-TOPO. The three HIV genes were additionally inserted into the baculovirus shuttle vector, pFastBacMam1, under the transcriptional control of the CMV promoter. A construction of the pHIV-I LTR containing mutated NFkB sequences linked to the luciferase reporter gene was prepared by digesting pcDNA3.1, containing the G418 resistance gene, with Nru I and Bam HI to remove the CMV promoter. LTR-luc was then cloned into the Nru I/Bam HI sites of the plasmid vector. Plasmid preparations were performed after the plasmids were amplified in Escherichia coli strain DH5-alpha. The fidelity of the inserted sequences was confirmed by double-strand nucleotide sequencing using an ABI Prism Model 377 automated sequencer.
BacMam Baculovirus Generation
Recombinant BacMam baculoviruses were constructed from pFastBacMam shuttle plasmids by using the bacterial cell-based Bac-to-Bac system. Viruses were propagated in Sf9 (Spodoptera frugiperda) cells cultured in Hink's TNM-FH Insect media supplemented with 10% (v/v) fetal bovine serum and 0.1% (v/v) pluronic F-68 according to established protocols.
Human osteosarcoma (HOS) cells that naturally express human CXCR4 were transfected with human CCR5, human CD4 and the pHIV-LTR-luciferase plasmid using FuGENE 6 transfection reagent. Single cells were isolated and grown under selection condition in order to generate a stable HOS (hCXCR4/hCCR5/hCD4/pHIV-LTR-luciferase) clonal cell line. The cells were maintained in Dulbeccos modified Eagles media supplemented with 10% fetal calf serum (FCS), G418 (400 ug/ml), puromycin (1 ug/ml), mycophenolic acid (40 ug/ml), xanthine (250 ug/ml) and hypoxanthine (13.5 ug/ml) to maintain a selection pressure for cells expressing the LTR-luciferase, hCCR5 and hCD4, respectively. Human embryonic kidney (HEK-293) cells stably transfected to express the human macrophage scavenging receptor (Class A, type 1; GenBank Accession No. D90187), were maintained in DMEM/F-12 media (1:1) supplemented with 10% FCS and 1.5 ug/ml puromycin. The expression of this receptor by the HEK-293 cells enhances their ability to stick to tissue culture treated plasticware.
Transduction of HEK-293 cells
HEK-293 cells were harvested using enzyme-free cell dissociation buffer. The cells were resuspended in DMEM/F-12 media supplemented with 10% FCS and 1.5 ug/ml and counted. Tranductions were performed by direct addition of BacMam baculovirus containing insect cell media to cells. The cells were simultaneously transduced with BacMam baculovirus expressing HIV-1 tat, HIV-1 rev and HIV-1 gp160 (from the HXB2 HIV strain). Routinely an MOI of 10 of each virus was added to the media containing the cells. 2 mM butyric acid was also added to the cells at this stage to increase protein expression in transduced cells. The cells were subsequently mixed and seeded into a flask at 30 million cells per T225. The cells were incubated at 37° C., 5% CO2, 95% humidity for 24 h to allow for protein expression.
Cell/Cell Fusion Assay Format
HEK and HOS cells were harvested in DMEM/F-12 media containing 2% FCS and DMEM media containing 2% FCS, respectively, with no selection agents added. Compounds were plated as 1 ul spots in 100% DMSO on a 96-well CulturPlate plates. HOS cells (50 ul) were added first to the wells, followed immediately by the HEK cells (50 ul). The final concentration of each cell type was 20,000 cells per well. Following these additions, the cells were returned to a tissue culture incubator (37° C.; 5% CO2/95% air) for an additional 24 h.
Measurement of Luciferase Production […]

T1 sequence (P61073 whole entry): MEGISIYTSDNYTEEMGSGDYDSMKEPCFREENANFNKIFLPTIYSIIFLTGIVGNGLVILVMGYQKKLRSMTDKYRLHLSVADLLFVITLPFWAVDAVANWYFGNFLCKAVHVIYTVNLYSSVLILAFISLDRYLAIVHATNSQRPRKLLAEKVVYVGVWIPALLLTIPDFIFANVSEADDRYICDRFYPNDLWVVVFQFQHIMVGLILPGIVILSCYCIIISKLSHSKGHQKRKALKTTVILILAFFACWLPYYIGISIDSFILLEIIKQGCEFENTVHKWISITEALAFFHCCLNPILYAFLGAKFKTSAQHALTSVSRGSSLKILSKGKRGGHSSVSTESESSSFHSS

As for `CC(C)N1CCN(c2cccc3nc(CN(C(C)C)C4CCCc5cccnc54)cn23)CC1` (stereo not shown) [Example 15, N-(1-Methylethyl)-N-({5-[4-(1-methylethyl)-1-piperazinyl]imidazo[1,2-a]pyridin-2-yl}methyl)-5,6,7,8-tetrahydro-8-quinolinamine], the IC50 was below 100 nM in the data set with HIV, 3.63 nM on human CXCR4, 38 nM in the data set with HIV-1 IIIB and 79.4 nM in data set [2]. In data set [1], the IC50 at 96 h is above 100000 nM.
Regarding `CCN1CCN(c2cccc3nc(CN(C)C4CCCc5cccnc54)cn23)CC1` (stereo not shown) [Example 7, N-{[5-(4-Ethyl-1-piperazinyl)imidazo[1,2-a]pyridin-2-yl]methyl}-N-methyl-5,6,7,8-tetrahydro-8-quinolinamine], the IC50 in the data set on HIV is below 100 nM; on human CXCR4 it was 6.92 nM; with HIV-1 IIIB, 11 nM; in data set [2] it was 11.2 nM. In addition, the IC50 at 96 h in data set [1] was above 100000 nM.
Take `CN(Cc1cn2c(-c3ccncc3)cccc2n1)C1CCCc2cccnc21` (stereo not shown) [Example 19, N-Methyl-N-{[5-(4-pyridinyl)imidazo[1,2-a]pyridin-2-yl]methyl}-5,6,7,8-tetrahydro-8-quinolinamine]: the IC50 in the data set on HIV was 100 to 500 nM; at human CXCR4, 20.4 nM; in the data set on HIV-1 IIIB it was 280 nM; in data set [2], 3160 nM. For the same compound, in data set [1], the IC50 at 96 h is above 100000 nM.
As for `CN(C)CCN(C)c1cccc2nc(CN(C)C3CCCc4cccnc43)cn12` (stereo not shown) [Example 11, N,N,N′-Trimethyl-N′-(2-{[methyl(5,6,7,8-tetrahydro-8-quinolinyl)amino]methyl}imidazo[1,2-a]pyridin-5-yl)-1,2-ethanediamine], the IC50 in the data set with HIV is below 100 nM; at human CXCR4 it was 33.9 nM; in the data set with HIV-1 IIIB, 32 nM; in data set [2] it was 67.6 nM. In data set [1], the IC50 at 96 h is above 100000 nM.
For `CC1CN(c2cccc3nc(CN(C)C4CCCc5cccnc54)cn23)CC(C)N1` (stereo not shown) [Example 12, N-{[5-(3,5-Dimethyl-1-piperazinyl)imidazo[1,2-a]pyridin-2-yl]methyl}-N-methyl-5,6,7,8-tetrahydro-8-quinolinamine], in that order: below 100 nM, 28.2 nM, 87 nM, 166 nM and above 100000 nM.
For `CC1CN(c2cccc3nc(CN(C)C4CCCc5cccnc54)cn23)CC(C)N1C` (stereo not shown) [Example 13, N-Methyl-N-{[5-(3,4,5-trimethyl-1-piperazinyl)imidazo[1,2-a]pyridin-2-yl]methyl}-5,6,7,8-tetrahydro-8-quinolinamine], in that order: below 100 nM, 18.2 nM, 62 nM, 77.6 nM and above 100000 nM.
As for `CN(Cc1cn2c(N3CCN(C(=O)OC(C)(C)C)CC3)cccc2n1)C1CCCc2cccnc21` (stereo not shown) [Example 9, 1,1-Dimethylethyl 4-(2-{[methyl(5,6,7,8-tetrahydro-8-quinolinyl)amino]methyl}imidazo[1,2-a]pyridin-5-yl)-1-piperazinecarboxylate], the IC50 at 96 h in data set [1] is above 100000 nM. Further, the IC50 at human CXCR4 was 363 nM; with HIV-1 IIIB it was 300 nM; in data set [2], 912 nM.
Take `CN1CCC(N(C)c2cccc3nc(CN(C)[C@H]4CCCc5cccnc54)cn23)CC1` [Example 87, (8S)—N-Methyl-N-({5-[methyl(1-methyl-4-piperidinyl)amino]imidazo[1,2-a]pyridin-2-yl}methyl)-5,6,7,8-tetrahydro-8-quinolinamine]: the IC50 in the data set with HIV is below 100 nM.
Still for that read-out and setting: the result for `CN(Cc1cn2c(N3CCCNCC3)cccc2n1)[C@H]1CCCc2cccnc21` [Example 84, (8S)—N-{[5-(Hexahydro-1H-1,4-diazepin-1-yl)imidazo[1,2-a]pyridin-2-yl]methyl}-N-methyl-5,6,7,8-tetrahydro-8-quinolinamine] reads below 100 nM.
Regarding `CN(C)CCN(C)c1cccc2nc(CN(C)[C@H]3CCCc4cccnc43)cn12` [Example 81, N,N,N′-Trimethyl-N′-[2-({methyl[(8S)-5,6,7,8-tetrahydro-8-quinolinyl]amino}methyl)imidazo[1,2-a]pyridin-5-yl]-1,2-ethanediamine], in the data set on HIV, the IC50 is below 100 nM.

These data come from patent publication US20070232615A1, “Chemical Compounds” (priority 2004, published 2007).
